Test results published in patent US20090005424A9, “Composition and Method for Treating Fibrotic Diseases” (priority 2005, published 2009).
Read-outs that look alike come from different tables or passages of the source.

Key:
[1] = tested on: Sprague-Dawley rats, Bleomycin-induced pulmonary fibrosis; assay: Bleomycin-induced rat pulmonary fibrosis, severity of fibrotic lesions; assay type: in vivo; settings: AKF-PD 500 mg/kg daily by gavage; 27 days post surgery; total of 8 rats
Method: Bleomycin-induced rat pulmonary fibrosis is selected for testing 5-methyl-1-(3′-fluorophenyl)-2(1H)-pyridone (AKF-PD). Male Sprague-Dawley rats (6-8 weeks old, 180 g˜220 g) were cared under regular condition. The animals were randomly divided into 3 groups: sham surgical group, model disease group, and disease/AKF-PD group. Six mg/kg/4 ml of Bleomycin was slowly infused into the trachea of rats in the model disease and disease/AKF-PD groups. Same amount of normal saline was infused into the trachea of rats in the sham surgical group.
Five hundred mg/kg AKF-PD was directly administrated by gavage to rats in the disease/AKF-PD group daily from 2 days prior to operation through 27 days after operation. Normal saline was used for all animals in both disease and sham surgical groups. The animals were sacrificed at 27 days post surgery and the lung tissues were removed for pathological sample preparation. The HE-stained lung tissues from each rat were examined under microscope to determine the frequency and severity of fibrotic lesion. Evaluation of lung tissue fibrosis was carried out according to the method of Szapiel et al., Bleomycin-induced interstitial pulmonary disease in the nude, athymic mouse. Am. Rev. Respir. Dis. 120:893-9(1979).

Kun Ming (KM) mice [2] = assay: Acute oral toxicity in Kun Ming mice, LD50 by Bliss method; settings: mouse, in vivo
Method: Male and female Kun Ming (KM) mice weighing between 18 g-22 g were acquired from the animal facility of Hsiang-Ya Medical College, the Central South University. Fifty Kun Ming mice were randomly assigned into 5 groups with 5 male and 5 female mice for each group. The animals went through fasting with a normal water supply before starting drug treatment (either AKF-PD or PIRFENIDONE). The drug was administrated orally by gavage. The volume of liquid drug was 20 ml/kg body weight. The range of dosage for AKF-PD administrated was from 1071 mg/kg to 6000 mg/kg. The dosage difference between two adjacent doses was 1:0.65 (a dose vs the next lower dose). All animals were maintained under a regular condition. Acute toxic reaction and death within 14 days of post drug treatment were recorded. Autopsy was performed on all dead animals and visual examination was performed on all organs.
LD50 was calculated according to Bliss method. […] The results of Table 15 are very close to those reported in the literature: 997.7 mg/kg (U.S. Pat. No. 5,310,562) and 1112 mg/kg(Pharmaceutical Care and Research 5:4823(2005)).

[3] = tested on: Kun Ming (KM) mice infected with Schistosoma miracidium; assay: Schistosomial liver fibrosis in Kun Ming mice, egg granuloma area and immunohistology; assay type: in vivo; settings: for Schistosomo Egg Granuloma Area, Mean: all after Pyquiton 650 mg/kg 4 days, AKF-PD 500 mg/kg daily gavage, γ-interferon 50,000 unit daily i.m., 8 weeks
Source text: Kun Ming (KM) mice were infected with Schistosoma miracidium to induce schistosomial liver fibrosis. […] Ten Schistosoma miracidium were placed on shaved abdominal skin of each mouse for infection. […] Five hundred mg/kg AKF-PD were given daily by gavage to the disinfected mice of infected/AKF-PD group. The disinfected mice were given (i.m.) 50,000 unit γ-interferon daily. […] Drug or normal saline treatment was continued for 8 weeks. All mice were sacrificed one week after discontinue of drug treatment, and the left lobe of liver from each mouse was taken for pathological examination. Examination of HE-stained slices of liver tissue were carried out as follows. In general, after 16 weeks of Schistosoma miracidia infection, the area of schistosomo egg granuloma would directly correlate to the severity of liver fibrosis. Therefore, the area of schistosomo egg granuloma was measured using a high-resolution, color pathology graphic analyzer (HPIAS-1000). The sum of area of 5 granuloma with abundant eggs and the sum of area of 5 granuloma with few eggs were measured for each slice.

[4] = tested on: TGF-β production and type I & III collagen accumulation in rat UUO model; assay: Rat UUO model, immunohistochemistry of TGF-β and type I & III collagen; assay type: in vivo; settings: kidney of UUO rats
Method: Similar to the example 8, Kidney fibrosis was induced by Unilateral Ureteral Obstruction. And the animal experiments were performed to investigate whether AKF-PD has any effect on TGF-β production and collagen accumulation. These are two known factors for fibrotic lesion.
As shown by FIG. 1, sections A-C were immunohistochemically stained with specific antibody against TGF-β with brown color indicating TGF-β protein expression in kidney cells. All sections were also counterstained lightly with hematoxylin for viewing non-TGF-β stained cells.
Also shown by FIG. 2, type I and III collagen were analyzed by immunohistochemistry. The typical fibrotic fiber was viewed as brown color. There are a […] accumulation of both type I (B) and type III (E) collagen on the fibrotic kidney of UUO model. […] Reduced collagen level can be interpreted as the reduced ECM.

fibroblast = assay: Inhibition of fibroblast, side-by-side comparison of substituents; assay type: cell-based; settings: structural formula II, n=1
Kun Ming (KM) mice [5] = settings: cited from earlier work
[6] = compared with pyquiton and Interferon-γ treated

| SMILES | Number of rats with Severity of Fibrosis: Milder [1] | Number of rats with Severity of Fibrosis: Moderate [1] | Number of rats with Severity of Fibrosis: None [1] | Number of rats with Severity of Fibrosis: Sever [1] | LD50 as percent of that of PIRFENIDONE (Kun Ming (KM) mice [2]; both, Kun Ming (KM), 14 days) [%] | LD50 95% confidence limit (Kun Ming (KM) mice [2]; both, Kun Ming (KM), po, 14 days) | toxicity relative to that of PIRFENIDONE (Kun Ming (KM) mice [2]) | fibrotic nodule (immunohistological staining, FIG. 3) [3, 6] | type I collagen accumulation (immunohistological staining, FIG. 4) [3, 6] | Schistosomo Egg Granuloma Area, Mean ([3]; granuloma with abundant eggs) [μm^2] | Schistosomo Egg Granuloma Area, Mean ([3]; granuloma with few eggs) [μm^2] | TGF-β production (immunohistochemistry, FIG. 1) [4] | type I and III collagen accumulation or production (immunohistochemistry, FIG. 2) [4] | activity inhibiting fibroblast (fibroblast) | LD50 reported in the literature (Kun Ming (KM) mice [5]; Pharmaceutical Care and Research 5:4823(2005)) [mg/kg] | LD50 reported in the literature (Kun Ming (KM) mice [5]; U.S. Pat. No. 5,310,562) [mg/kg] |
| --- | --- | --- | --- | --- | --- | --- | --- | --- | --- | --- | --- | --- | --- | --- | --- | --- |
| Cc1ccc(=O)n(-c2cccc(F)c2)c1 [AKF-PD, 1-(3′-fluorophenyl)-5-methyl-2(1H)-pyridone] | 6 | 1 | 0 | 1 | 30 | (2402.70 − 3695.73) mg/kg | one third | much reduced fibrotic nodule | much less type I collagen accumulation | 80155.11 | 30266.68 | significantly reduced TGF-β production | significantly blocks type I and III collagen accumulation or production | activities inhibiting fibroblast |  |  |
| Cc1ccc(=O)n(-c2ccccc2)c1 [PFD, 5-methyl-1-phenyl-2(1H)-pyridone, reference compound] |  |  |  |  |  |  |  |  |  |  |  |  |  |  | 1112 | 997.7 |
